Reference: patent publication US12415939B2, “Nano-adhesive and surface primer compound and use thereof” (The Regents of the University of California, priority 2015, dated 2025)
Values joined by “and” are separate entries in the source; they are usually repeats but may differ in a detail not shown here. Identical values can stand only once.

What was measured:
[1] = Cyclic voltammetry of catechol oxidation; format: physicochemical; conditions: for E1/2: DI water, scan rate 1 mV s−1, Ag/AgCl reference
Method: (§1) Cyclic voltammetry was performed on a Versastat 3 potentiostat from Ametek Co. These analyses were carried out using a three-electrode cell: a Pt wire as the counter electrode, an Ag/AgCl reference electrode, and a Carbon paste electrode (CPE) served as the working electrode. CPE is the best choice for adhesive materials because of its ability to be completely polished before each experiment. Catechol auto-oxidation was avoided by performing all electrochemical experiments with degassed deionized water in a glove bag under argon. Scan rate 1 mV s-1 was used for all experiments. CV of 5 mM synthesized polymers and 5 mM methyl catechol, a simple catechol-containing compound, were compared. Oxidation of Catechol carrying molecules occurred at more positive potentials than methyl catechol, indicating the unique structure of the dispersions provide shielding effects that stabilized catechol groups (FIG. 3).
Cyclic voltammetry was performed on a Versastat 3 potentiostat from Ametek Co. (Berwyn, PA). These analyses were carried out using a three-electrode cell: a Pt wire as the counter electrode, an Ag/AgCl reference electrode, and a Carbon paste electrode (CPE) served as the working electrode. CPE is the best choice for adhesive materials because of its ability to be completely polished before each experiment.
as §1, with “s^−1” for “s-1”, “molecules” for “polymers”, “groups. Z-Cat-Ben with an oxidation peak at 840 mV is more resistant to oxidation than the other species” for “groups”, “42).” for “3).”

[2] = Surface forces apparatus (SFA) cohesion/adhesion between thin films on mica; format: physicochemical
[3] = Standard three point bending peel test; conditions: ambient dry, n=4
Method: Samples were prepared as described above in “Lap Joint Bending Peel Test” underwater, i.e., aqueous periodate solution, then dried 12 h and 24 h, respectively, in ambient condition. In this standard three point bending peel test, the cross section area was 2.54 cm×1.27 cm.
The standard three point bending peel test (FIG. 24F) was conducted with a Bionix 200 tensile tester (MTS Systems) in ambient conditions. All tests were conducted with a test speed of 5 mm min-1.

[4] = Z-Cat-C10 0.1 mg ml−1 sample in DI water

| oxidation peak ([1]; 5 mM in degassed DI water, 1 mV s−1) [mV] | E1/2 [1] [V] | hard-wall thickness ([2]; SAMs from 5 mM, mica) [nm] | molecular density on mica ([2]; from cohesion energy and π-π interaction) | oxidation peak [1, 4] [mV] | reduction peak [1, 4] [mV] | thin film thickness ([2]; post-oxidation, crosslinked films) | Compound | stability in water to oxidation (shelf life) ([1]; 5 mM in DI water) | effect of sodium periodate treatment on cohesion ([2]; 500 pmoles periodate) | cohesion energy Wc between SAMs ([2]; 5 mM in DI water, mica) | effect of aqueous Fe3+ on cohesion ([2]; CFe3+=10 M as printed) | cohesion energy Wc before and after periodate and iron treatments ([2]; SAMs on mica) [mJ/m^2] | adhesion on mica relative to mfp-5 and mfp-amyloid fusion protein [2] | increase in adhesion after asymmetric oxidation ([2]; after tc=60 min contact time) [%] | decrease in cohesion after symmetric periodate oxidation ([2]; contact times ≤tc=10 min, rebounded after tc=60 min) [%] | adhesion energy Wad after periodate oxidation ([2]; cross-linked films on mica, tc=12 h compressive contact) [mJ m^−2] | cohesion (or adhesion) energy Wc ([2]; symmetric films adsorbed from 5 mM, DI water, mica) [mJ m^−2] | work of adhesion before periodate ([2]; uncross-linked films on mica) [mJ m^−2] | three point bending peel strength [3] [N cm^−1] |
| --- | --- | --- | --- | --- | --- | --- | --- | --- | --- | --- | --- | --- | --- | --- | --- | --- | --- | --- | --- |
| 840 | 0.418 | ~1 | 1.07×10^18 molecules per m^2 |  |  |  | C[N+](C)(CCCc1ccccc1)CCOP(=O)([O-])OCCCc1ccc(O)c(O)c1 [Z-Cat-Ben] | stable (shelf life) in water to oxidation | same before and after | 19±3 mJ/m^2 and 18.7±2.8 mJ/m^2 | not affected | ~20 |  |  |  |  |  |  |  |
|  | ~0.25 |  |  | 530 | 316 | 2-4 nm | CN(C)CCOP(=O)(O)OCCCc1ccc(O)c(O)c1 [Z-Cat-C10] |  |  |  |  |  | 2-3 fold | 50 | 50 | ~50 | 10.1±2.3 | ~20 | 20.5 |
